Holding throughout (assay type): cell-based, human
Data set [1] relates to HGPS MSCs. The data set can be described thus: Osteogenic differentiation (alkaline phosphatase activity). Particulars: 7 days of osteogenic differentiation. The method, then: MSC were seeded at 600 cells per well in 384 well plate in MSC culture medium and treated as previously described. After 72 hours, MSC medium was replaced by STEMPRO osteogenic induction medium (Invitrogen) in presence or not of the different drugs. After 7 days of treatment, cells were fixed with ethanol 95% and stained by adding either a colorimetric substrate of the alkaline phosphatase, the 5-Bromo-4-chloro-3-indolyl phosphate/Nitro blue tetrazolium (NBT) (Sigma-Aldrich) or a chromogenic substrate of this enzyme (absorbance at 405 nm), the p-Nitrophenyl Phosphate (pNPP) (Pierce Biotechnology).

Another data set has as its system prelamin A. The data set is described as follows: Western immunoblotting of prelamin A. Particulars: HGPS MSCs, optimal concentration. As to the method: Whole-cell lysates of MSC were collected, separated by SDS-PAGE, and transferred onto PVPF membrane by liquid transfer method. Blots were blocked in 10% skim milk (Bio-Rad) in tween 0.1% tris-buffered saline (TTBS) 1× one hour at room temperature. The primary antibodies used were a mouse anti-lamins A/C 1:200 (Millipore, JOL2), a rabbit anti-prelamin A 1/100 (ANTOO45, Diatheva) and a β-actin 1/200000 (Sigma). Membranes were incubated during the night at 4° C. Antigen-antibody binding was detected using horseradish peroxidaseconjugated species-specific secondary antibodies (GE-Healthcare, Little Chalfont, UK) followed by enhanced chemiluminescence Western blotting detection reagents (Perkin-Elmer, Waltham, USA).
(In general: A western blot detects proteins with antibodies after separation by electrophoresis.)

The next data set relates to HDJ2. The data set can be described thus: Western blot analysis of HDJ2 farnesylation.
Data set [2] deals with HGPS MSCs. The data set can be described thus: ATP measurement (CellTiter Glo). Particulars: 48 h. The method, then:
HGPS and control MSC were seeded in a 96 well plates (3917, Corning) (5000 cells/well) and treated with the different drugs. After 48 hours of treatment in unique dose, ATP content was measured using CellTiter Glo® (Promega) accordingly to the manufacturer recommendations. Luminescence was measured with an Analyst GT multimode plate reader (Molecular devices). In parallel, Hoechst 33342 stained nuclei were counted in each well thanks to an automated microscope. The results exploited are given in the ratio between ATP measurement and the number of nuclei counted.

Data set [3] has as its system lamin A and progerin mRNA expression. The data set is described as follows: Quantitative PCR of lamin A and progerin mRNA. To be noted: HGPS MSCs, 48 h, normalized on DMSO 0.1%. As to the method: Total RNA was isolated using RNeasy Mini extraction kit (Qiagen, Courtaboeuf, France) according to the manufacturer's protocol. An on-col DNase I digestion was performed to avoid genomic DNA amplification. RNA level and quality were checked using the Nanodrop technology. A total of 500 ng of RNA was used for reverse transcription using the Superscript III reverse transcription kit (Invitrogen). Q-PCR analysis was performed using a ABI 7900 system (Applied biosystem) and TaqMan gene expression Master Mix (Roche) following the manufacturer's instructions. Quantification of gene expression was based on the DeltaCt Method and normalized on 18S expression (Assay HS_99999901_S1). PCR primers were previously described by S. Rodriguez and colleagues (Rodriguez S et al., 2009, Eur J Hum Genet, VOL 17(7): 928-37). Primer sequences were lamin A (exons 11/12), 5′-[…]-3′ (SEQ N^o 1) and 5′-AGTTCTGGGGGCTCTGGGT-3′ (SEQ N^o 2); lamin C (exons 9/10), 5′-[…]-3′ (SEQ N^o 3) and 5′-CGGCGGCTACCACTCAC-3′ (SEQ ID N^o 4) and Progerin
(exons 11/12), 5′-ACTGCAGCAGCTCGGGG-3′ (SEQ N^o 5) and 5′-TCTGGGGGCTCTGGGC-3′ (SEQ ID N^o 6).
Taqman MGB probe sequences were lamin A (exon 11), 5′-ACTCGCAGCTACCG-3′ (SEQ N^o 7); lamin C (exon10), 5′-ATGCGCAAGCTGGTG-3′ (SEQ ID N^o 8) and Progerin (exon 11), 5′-CGCTGAGTACAACCT-3′ (SEQ ID N^o 9). […]

The test system of data set [4] is HGPS MSCs. The data set can be described thus: Cell proliferation (Ki-67 immunostaining). To be noted: 48 h. As to the method: (§1) In the 4-steps protocol, cells were fixed in 4% paraformaldehyde (15 minutes, room temperature) before permeabilization and blocking in PBS supplemented with 0.1% triton X-100 and 1% BSA (Sigma-Aldrich, St. Louis, USA). Primary antibodies were incubated one hour at room temperature in blocking buffer. Antibodies included mouse anti-lamins A/C (clone JOL2, Millipore, Billerica, USA), rabbit anti-prelamin A (ANTOO45, Diatheva) and anti-Ki67 (clone Ki-S5, MAB4190, Millipore, Billerica, USA). Cells were stained with the species-specific fluorophore-conjugated secondary antibody (Invitrogen) (one hour, room temperature) and nuclei were visualized with Hoechst 33342.

For data set [5], the system named is HGPS MSCs. The data set can be described thus: Nuclear shape abnormalities (lamin A/C immunostaining). To be noted: 48 h, lamin A/C staining. The method, then: as §1

The values that follow come from US10654838B2, “Aminopyridine compounds useful as inhibitors of protein prenylation” (INSTITUT NATIONAL DE LA SANTE ET DE LA RECHERCHE MEDICALE …, priority 2014, dated 2020).

For `Cc1cccc(N(C)c2cc(N3CCN(C(=O)Cc4c(-c5ccccc5)[nH]c5ccccc45)CC3)ncn2)c1` [Di-AP1, 1-{4-[6-(Methyl-m-tolyl-amino)-pyrimidin-4-yl]-piperazin-1-yl}-2-(2-phenyl-1H-indol-3-yl)-ethanone], the “rescue of premature osteogenic differentiation (alkaline phosphatase activity)” value in the data set with HGPS MSCs [1] was “not significantly different to those observed following FTI treatment”. Moreover, in the data set on prelamin A, the “prelamin A level (Western blot)” value was “increased”. Further, the “unfarnesylated form of HDJ2” value in the data set on HDJ2 is “increase of the unfarnesylated form of the protein”. Also, the “ATP content (energetic metabolism)” value in the data set on HGPS MSCs [2] is on record as “increased ATP content”. For the same compound, the “lamin A and progerin mRNA expression” value in data set [3] was “increased”. Besides, the “number of Ki-67 positive cells” value with HGPS MSCs [4] was “up to 65%”. The “rescue of nuclear shape abnormalities” value in the data set on HGPS MSCs [5] is “not efficient”.
